The record followed here is publication PMC10987639 (2024).

Assay [1] concerns yjdF riboswitch aptamer domain from R. gauvreauii, P2a loop modified for Fab BL3-6 binding (crystallization construct) (RNA, riboswitch) GGACAAAGAUAAAAACACAACGUAUGGCGAAACACGUCAUACAGAUCCGGUAGGUAGUCCGGACAUAAACAGCGGUAUAAAGCGCUGUUUAUAAGUAACCUUCCUCCUUAGGUCGUCCAUUCUUUGUC
The assay can be described thus: X-ray crystallography (2.77 Å). The settings on record: Mg2+, K+ (PDB ligands; concentrations not in material); co-crystal with Fab BL3-6, potassium osmate(VI) soak, pH 7.5; two ligand orientations.

Assay [2] has the same test system. As to the kind of experiment: X-ray crystallography (3.05 Å). To be noted: Mg2+ (PDB ligand; concentration not in material); co-crystal with Fab BL3-6, pH 7.5; ligand orientation ambiguous.

On to `COc1ccc2c(c[n+](C)c3c4cc5c(cc4ccc23)OCO5)c1OC`, for which, in assay [1], the binding result is recorded as “yes”.
As to `Nc1ccc2cc3ccc(N)cc3nc2c1`, in assay [2], the binding entry is given as “yes”.
